Results as given in patent US20230085307A1, “PYRIDAZINONE COMPOUND AND HERBICIDE” (NISSAN CHEMICAL CORPORATION, priority 2019, published 2023).

Assays:
barnyard grass [1] = assay: Test Example 4: herbicidal effect by soil treatment (Table 19, symbol H); assay type: in vivo, barnyard grass (Echinochloa crus-galli); conditions: amount of applied herbicide 320 g/ha
In short: (§1)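 Step 1: sow seeds in sterilized diluvial soil, cover ~1.5 cm. Step 2: spray diluted emulsion onto soil surface at predetermined rate. Step 3: greenhouse, 25–30° C, three weeks. Step 4: grade effect on each plant by earlier criteria.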

redroot pigweed [2] = assay: Test Example 5: herbicidal effect by foliage application, plastic box (Table 20, symbol N); assay type: in vivo, redroot pigweed (Amaranthus retroflexus); conditions: amount of applied herbicide 320 g/ha; foliage application after 14-day growth; evaluated three weeks after application
In short: (§2)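 Foliar spray test: emulsion formulation diluted in water to a set application rate, sprayed onto 14-day-old plants raised in diluvial soil at 25° C to 30° C under glass. Both herbicidal effect and crop effect rated visually three weeks later.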

windgrass [3] = assay: Test Example 5: herbicidal effect by foliage application, plastic box (Table 20, symbol L); assay type: in vivo, windgrass (Apera spica-venti); conditions: amount of applied herbicide 320 g/ha; foliage application after 14-day growth; evaluated three weeks after application
In short: as §2

southern crabgrass [4] = assay: Test Example 5: herbicidal effect by foliage application, plastic box (Table 20, symbol F); assay type: in vivo, southern crabgrass (Digitaria ciliaris); conditions: amount of applied herbicide 320 g/ha; foliage application after 14-day growth; evaluated three weeks after application
In short: as §2

velvetleaf [5] = assay: Test Example 5: herbicidal effect by foliage application, plastic box (Table 20, symbol M); assay type: in vivo, velvetleaf (Abutilon theophrasti); conditions: amount of applied herbicide 320 g/ha; foliage application after 14-day growth; evaluated three weeks after application
In short: as §2

green foxtail [6] = assay: Test Example 4: herbicidal effect by soil treatment (Table 19, symbol G); assay type: in vivo, green foxtail (Setaria viridis); conditions: amount of applied herbicide 320 g/ha
In short: as §1

false cleavers = assay: Test Example 5: herbicidal effect by foliage application, plastic box (Table 20, symbol Q); assay type: in vivo, false cleavers (Galium spurium); conditions: amount of applied herbicide 320 g/ha; foliage application after 14-day growth; evaluated three weeks after application
In short: as §2

blackgrass [7] = assay: Test Example 5: herbicidal effect by foliage application, plastic box (Table 20, symbol J); assay type: in vivo, blackgrass (Alopecurus myosuroides); conditions: amount of applied herbicide 320 g/ha; foliage application after 14-day growth; evaluated three weeks after application
In short: as §2

barnyard grass [8] = assay: Test Example 3: herbicidal effect by foliage application, Wagner pot (Table 18, symbol H); assay type: in vivo, barnyard grass (Echinochloa crus-galli); conditions: 320 g/ha
In short: (§3)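 Plants were sown in alluvial soil held under 0.1–0.5 cm standing water and grown 14 days in a greenhouse at 25–30 °C. An emulsifiable formulation, water-diluted to the set dose, was then sprayed onto the foliage, and effects were scored three weeks later using previously defined criteria.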

green foxtail [9] = assay: Test Example 5: herbicidal effect by foliage application, plastic box (Table 20, symbol G); assay type: in vivo, green foxtail (Setaria viridis); conditions: amount of applied herbicide 320 g/ha; foliage application after 14-day growth; evaluated three weeks after application
In short: as §2

southern crabgrass [10] = assay: Test Example 4: herbicidal effect by soil treatment (Table 19, symbol F); assay type: in vivo, southern crabgrass (Digitaria ciliaris); conditions: amount of applied herbicide 320 g/ha
In short: as §1

Chinese sprangletop = assay: Test Example 3: herbicidal effect by foliage application, Wagner pot (Table 18, symbol D); assay type: in vivo, chinese sprangletop (Leptochloa chinensis); conditions: 320 g/ha
In short: as §3

chickweed [11] = assay: Test Example 4: herbicidal effect by soil treatment (Table 19, symbol P); assay type: in vivo, common chickweed (Stellaria media); conditions: amount of applied herbicide 320 g/ha
In short: as §1

oval-leafed pondweed = assay: Test Example 1: herbicidal activity, application before weed generation under submerged conditions (Table 16, symbol C); assay type: in vivo, oval-leafed pondweed (Monochoria vaginalis); conditions: amount of applied herbicide 320 g/ha
In short: (§4)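 Alluvial soil was flooded to 4 cm depth, weed seeds were sown mixed and 2.5-leaf rice seedlings were transplanted. On sowing day, the compound's emulsion, diluted in water to a set dose, was applied to the water surface. Plants grew at 25–30 °C and were scored 0–5 after three weeks.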

Japanese bulrush = assay: Test Example 1: herbicidal activity, application before weed generation under submerged conditions (Table 16, symbol B); assay type: in vivo, Japanese bulrush (Schoenoplectus juncoides); conditions: amount of applied herbicide 320 g/ha
In short: as §4

blackgrass [12] = assay: Test Example 4: herbicidal effect by soil treatment (Table 19, symbol J); assay type: in vivo, blackgrass (Alopecurus myosuroides); conditions: amount of applied herbicide 320 g/ha
In short: as §1

rice flat sedge = assay: Test Example 3: herbicidal effect by foliage application, Wagner pot (Table 18, symbol E); assay type: in vivo, rice flat sedge (Cyperus iria); conditions: 320 g/ha
In short: as §3

barnyard grass [13] = assay: Test Example 5: herbicidal effect by foliage application, plastic box (Table 20, symbol H); assay type: in vivo, barnyard grass (Echinochloa crus-galli); conditions: amount of applied herbicide 320 g/ha; foliage application after 14-day growth; evaluated three weeks after application
In short: as §2

chickweed [14] = assay: Test Example 5: herbicidal effect by foliage application, plastic box (Table 20, symbol P); assay type: in vivo, common chickweed (Stellaria media); conditions: amount of applied herbicide 320 g/ha; foliage application after 14-day growth; evaluated three weeks after application
In short: as §2

persian speedwell [15] = assay: Test Example 5: herbicidal effect by foliage application, plastic box (Table 20, symbol R); assay type: in vivo, Persian speedwell (Veronica persica); conditions: amount of applied herbicide 320 g/ha; foliage application after 14-day growth; evaluated three weeks after application
In short: as §2

Italian ryegrass [16] = assay: Test Example 5: herbicidal effect by foliage application, plastic box (Table 20, symbol K); assay type: in vivo, Italian ryegrass (Lolium multiflorum); conditions: amount of applied herbicide 320 g/ha; foliage application after 14-day growth; evaluated three weeks after application
In short: as §2

velvetleaf [17] = assay: Test Example 4: herbicidal effect by soil treatment (Table 19, symbol M); assay type: in vivo, velvetleaf (Abutilon theophrasti); conditions: amount of applied herbicide 320 g/ha
In short: as §1

lambsquarters [18] = assay: Test Example 4: herbicidal effect by soil treatment (Table 19, symbol O); assay type: in vivo, lambsquarters (Chenopodium album); conditions: amount of applied herbicide 320 g/ha
In short: as §1

late watergrass = assay: Test Example 1: herbicidal activity, application before weed generation under submerged conditions (Table 16, symbol A); assay type: in vivo, late watergrass (Echinochloa oryzicola); conditions: amount of applied herbicide 320 g/ha
In short: as §4

lambsquarters [19] = assay: Test Example 5: herbicidal effect by foliage application, plastic box (Table 20, symbol O); assay type: in vivo, lambsquarters (Chenopodium album); conditions: amount of applied herbicide 320 g/ha; foliage application after 14-day growth; evaluated three weeks after application
In short: as §2

Italian ryegrass [20] = assay: Test Example 4: herbicidal effect by soil treatment (Table 19, symbol K); assay type: in vivo, Italian ryegrass (Lolium multiflorum); conditions: amount of applied herbicide 320 g/ha
In short: as §1

wild oat [21] = assay: Test Example 4: herbicidal effect by soil treatment (Table 19, symbol I); assay type: in vivo, wild oat (Avena fatua); conditions: amount of applied herbicide 320 g/ha
In short: as §1

redroot pigweed [22] = assay: Test Example 4: herbicidal effect by soil treatment (Table 19, symbol N); assay type: in vivo, redroot pigweed (Amaranthus retroflexus); conditions: amount of applied herbicide 320 g/ha
In short: as §1

wild oat [23] = assay: Test Example 5: herbicidal effect by foliage application, plastic box (Table 20, symbol I); assay type: in vivo, wild oat (Avena fatua); conditions: amount of applied herbicide 320 g/ha; foliage application after 14-day growth; evaluated three weeks after application
In short: as §2

windgrass [24] = assay: Test Example 4: herbicidal effect by soil treatment (Table 19, symbol L); assay type: in vivo, windgrass (Apera spica-venti); conditions: amount of applied herbicide 320 g/ha
In short: as §1

persian speedwell [25] = assay: Test Example 4: herbicidal effect by soil treatment (Table 19, symbol R); assay type: in vivo, Persian speedwell (Veronica persica); conditions: amount of applied herbicide 320 g/ha
In short: as §1

SMILES	H: barnyard grass, herbicidal effect grade (barnyard grass [1])	Herbicidal effect by foliage application, N: redroot pigweed (redroot pigweed [2])	Herbicidal effect by foliage application, L: windgrass (windgrass [3])	Herbicidal effect by foliage application, F: southern crabgrass (southern crabgrass [4])	Herbicidal effect by foliage application, M: velvetleaf (velvetleaf [5])	G: green foxtail, herbicidal effect grade (green foxtail [6])	Herbicidal effect by foliage application, Q: false cleavers (false cleavers)	Herbicidal effect by foliage application, J: blackgrass (blackgrass [7])	herbicidal effect on barnyard grass (H) (barnyard grass [8])	Herbicidal effect by foliage application, G: green foxtail (green foxtail [9])	F: southern crabgrass, herbicidal effect grade (southern crabgrass [10])	herbicidal effect on Chinese sprangletop (D) (Chinese sprangletop)	P: chickweed, herbicidal effect grade (chickweed [11])	Herbicidal effect, C: oval-leafed pondweed (oval-leafed pondweed)	Herbicidal effect, B: Japanese bulrush (Japanese bulrush)	J: blackgrass, herbicidal effect grade (blackgrass [12])	herbicidal effect on rice flat sedge (E) (rice flat sedge)	Herbicidal effect by foliage application, H: barnyard grass (barnyard grass [13])	Herbicidal effect by foliage application, P: chickweed (chickweed [14])	Herbicidal effect by foliage application, R: persian speedwell (persian speedwell [15])	other results
CCCC(=O)Oc1c(C)nn(C)c(=O)c1-c1c(-c2ccc(C)cc2)sc2cc(F)c(F)cc12 [5-004]	0 (Herbicidal rate of 5% or less (almost no effect))	2 (Herbicidal rate of 20% or more and less than 40%)	1 (Herbicidal rate of 5% or more and less than 20%)	0 (Herbicidal rate of 5% or less (almost no effect))	3 (Herbicidal rate of 40% or more and less than 70%)	0 (Herbicidal rate of 5% or less (almost no effect))	0 (Herbicidal rate of 5% or less (almost no effect))	0 (Herbicidal rate of 5% or less (almost no effect))	3 (Herbicidal rate of 40% or more and less than 70%)	3 (Herbicidal rate of 40% or more and less than 70%)	0 (Herbicidal rate of 5% or less (almost no effect))	0 (Herbicidal rate of 5% or less (almost no effect))	0 (Herbicidal rate of 5% or less (almost no effect))	0 (Herbicidal rate of 5% or less (almost no effect))	3 (Herbicidal rate of 40% or more and less than 70%)	0 (Herbicidal rate of 5% or less (almost no effect))	0 (Herbicidal rate of 5% or less (almost no effect))	0 (Herbicidal rate of 5% or less (almost no effect))	3 (Herbicidal rate of 40% or more and less than 70%)	3 (Herbicidal rate of 40% or more and less than 70%)	Herbicidal effect by foliage application, K: Italian ryegrass (Italian ryegrass [16]): 1 (Herbicidal rate of 5% or more and less than 20%); M: velvetleaf, herbicidal effect grade (velvetleaf [17]): 0 (Herbicidal rate of 5% or less (almost no effect)); O: lambsquarters, herbicidal effect grade (lambsquarters [18]): 4 (Herbicidal rate of 70% or more and less than 90%); Herbicidal effect, A: late watergrass (late watergrass): 2 (Herbicidal rate of 20% or more and less than 40%); Herbicidal effect by foliage application, O: lambsquarters (lambsquarters [19]): 4 (Herbicidal rate of 70% or more and less than 90%); K: Italian ryegrass, herbicidal effect grade (Italian ryegrass [20]): 0 (Herbicidal rate of 5% or less (almost no effect)); I: wild oat, herbicidal effect grade (wild oat [21]): 0 (Herbicidal rate of 5% or less (almost no effect)); N: redroot pigweed, herbicidal effect grade (redroot pigweed [22]): 3 (Herbicidal rate of 40% or more and less than 70%); Herbicidal effect by foliage application, I: wild oat (wild oat [23]): 0 (Herbicidal rate of 5% or less (almost no effect)); L: windgrass, herbicidal effect grade (windgrass [24]): 0 (Herbicidal rate of 5% or less (almost no effect)); R: persian speedwell, herbicidal effect grade (persian speedwell [25]): 0 (Herbicidal rate of 5% or less (almost no effect))
CCCC(=O)Oc1c(C)nn(C)c(=O)c1-c1c(-c2ccc(COC)cc2)sc2cc(F)c(F)cc12 [5-010]	2 (Herbicidal rate of 20% or more and less than 40%)	2 (Herbicidal rate of 20% or more and less than 40%)	0 (Herbicidal rate of 5% or less (almost no effect))	0 (Herbicidal rate of 5% or less (almost no effect))	0 (Herbicidal rate of 5% or less (almost no effect))	0 (Herbicidal rate of 5% or less (almost no effect))	5 (Herbicidal rate of 90% or more (almost completely withered))	0 (Herbicidal rate of 5% or less (almost no effect))	3 (Herbicidal rate of 40% or more and less than 70%)	4 (Herbicidal rate of 70% or more and less than 90%)	0 (Herbicidal rate of 5% or less (almost no effect))	3 (Herbicidal rate of 40% or more and less than 70%)	0 (Herbicidal rate of 5% or less (almost no effect))	0 (Herbicidal rate of 5% or less (almost no effect))	2 (Herbicidal rate of 20% or more and less than 40%)	0 (Herbicidal rate of 5% or less (almost no effect))	4 (Herbicidal rate of 70% or more and less than 90%)	1 (Herbicidal rate of 5% or more and less than 20%)	3 (Herbicidal rate of 40% or more and less than 70%)	5 (Herbicidal rate of 90% or more (almost completely withered))	Herbicidal effect by foliage application, K: Italian ryegrass (Italian ryegrass [16]): 1 (Herbicidal rate of 5% or more and less than 20%); M: velvetleaf, herbicidal effect grade (velvetleaf [17]): 2 (Herbicidal rate of 20% or more and less than 40%); O: lambsquarters, herbicidal effect grade (lambsquarters [18]): 3 (Herbicidal rate of 40% or more and less than 70%); Herbicidal effect, A: late watergrass (late watergrass): 0 (Herbicidal rate of 5% or less (almost no effect)); Herbicidal effect by foliage application, O: lambsquarters (lambsquarters [19]): 3 (Herbicidal rate of 40% or more and less than 70%); K: Italian ryegrass, herbicidal effect grade (Italian ryegrass [20]): 0 (Herbicidal rate of 5% or less (almost no effect)); I: wild oat, herbicidal effect grade (wild oat [21]): 0 (Herbicidal rate of 5% or less (almost no effect)); N: redroot pigweed, herbicidal effect grade (redroot pigweed [22]): 3 (Herbicidal rate of 40% or more and less than 70%); Herbicidal effect by foliage application, I: wild oat (wild oat [23]): 0 (Herbicidal rate of 5% or less (almost no effect)); L: windgrass, herbicidal effect grade (windgrass [24]): 0 (Herbicidal rate of 5% or less (almost no effect)); R: persian speedwell, herbicidal effect grade (persian speedwell [25]): 2 (Herbicidal rate of 20% or more and less than 40%)
